# Results reported in patent US7153874B2, “Imidazole derivatives” (Hoffmann-La Roche Inc., priority 2003, dated 2006).
# Structures can show the parent of a compound that is named as a salt.
# Molecular target: T1, human mGlu 5a receptor (Homo sapiens, UniProt P41594)
# T1 construct: expressed in transfected cells; host or cells: EBNA cells (transient transfection); cell membrane homogenates
# Assay: [3H]MPEP competition binding on membranes of EBNA cells transfected with human mGlu 5a receptor
# Conditions: read-out: Ki (mGluR5)
# Experimental: For binding experiments, cDNA encoding human mGlu 5a receptor was transiently transfected into EBNA cells using a procedure described by Schlaeger and Christensen [Cyto-technology 15:1–13 (1998)]. Cell membrane homogenates were stored at −80° C. until the day of assay where upon they were thawed and resuspended and polytronised in 15 mM Tris-HCl, 120 mM NaCl, 100 mM KCl, 25 mM CaCl2, 25 mM MgCl2 binding buffer at pH 7.4 to a final assay concentration of 20 μg protein/well.
# Saturation isotherms were determined by addition of twelve [^3H]MPEP concentrations (0.04–100 nM) to these membranes (in a total volume of 200 μl) for 1 h at 4° C. Competition experiments were performed with a fixed concentration of [^3H]MPEP (2 nM) and IC50 values of test compounds evaluated using 11 concentrations (0.3–10,000 nM). Incubations were performed for 1 h at 4° C.
# At the end of the incubation, membranes were filtered onto unifilter (96-well white microplate with bonded GF/C filter preincubated 1 h in 0.1% PEI in wash buffer, Packard BioScience, Meriden, Conn.) with a Filtermate 96 harvester (Packard BioScience) and washed 3 times with cold 50 mM Tris-HCl, pH 7.4 buffer. Nonspecific binding was measured in the presence of 10 μM MPEP. The radioactivity on the filter was counted (3 min) on a Packard Top-count microplate scintillation counter with quenching correction after addition of 45 μl of microscint 40 (Canberra Packard S. A., Zürich, Switzerland) and shaking for 20 min.
# The inhibition (antagonists) curves were fitted with a four parameter logistic equation giving IC50, and Hill coefficient using an iterative non linear curve fitting software (Xcel fit).
# The Ki value is defined by the following formula: Ki=IC50/[1+L/Kd] in which the IC50 values are those concentrations of the compounds tested which cause 50% inhibition of the competing radioligand ([^3H]MPEP). L is the concentration of radioligand used in the binding experiment and the Kd value of the radioligand is empirically determined for each batch of membranes prepared.
# T1 sequence (P41594 21-1180 isoform P41594-2 limits assumed): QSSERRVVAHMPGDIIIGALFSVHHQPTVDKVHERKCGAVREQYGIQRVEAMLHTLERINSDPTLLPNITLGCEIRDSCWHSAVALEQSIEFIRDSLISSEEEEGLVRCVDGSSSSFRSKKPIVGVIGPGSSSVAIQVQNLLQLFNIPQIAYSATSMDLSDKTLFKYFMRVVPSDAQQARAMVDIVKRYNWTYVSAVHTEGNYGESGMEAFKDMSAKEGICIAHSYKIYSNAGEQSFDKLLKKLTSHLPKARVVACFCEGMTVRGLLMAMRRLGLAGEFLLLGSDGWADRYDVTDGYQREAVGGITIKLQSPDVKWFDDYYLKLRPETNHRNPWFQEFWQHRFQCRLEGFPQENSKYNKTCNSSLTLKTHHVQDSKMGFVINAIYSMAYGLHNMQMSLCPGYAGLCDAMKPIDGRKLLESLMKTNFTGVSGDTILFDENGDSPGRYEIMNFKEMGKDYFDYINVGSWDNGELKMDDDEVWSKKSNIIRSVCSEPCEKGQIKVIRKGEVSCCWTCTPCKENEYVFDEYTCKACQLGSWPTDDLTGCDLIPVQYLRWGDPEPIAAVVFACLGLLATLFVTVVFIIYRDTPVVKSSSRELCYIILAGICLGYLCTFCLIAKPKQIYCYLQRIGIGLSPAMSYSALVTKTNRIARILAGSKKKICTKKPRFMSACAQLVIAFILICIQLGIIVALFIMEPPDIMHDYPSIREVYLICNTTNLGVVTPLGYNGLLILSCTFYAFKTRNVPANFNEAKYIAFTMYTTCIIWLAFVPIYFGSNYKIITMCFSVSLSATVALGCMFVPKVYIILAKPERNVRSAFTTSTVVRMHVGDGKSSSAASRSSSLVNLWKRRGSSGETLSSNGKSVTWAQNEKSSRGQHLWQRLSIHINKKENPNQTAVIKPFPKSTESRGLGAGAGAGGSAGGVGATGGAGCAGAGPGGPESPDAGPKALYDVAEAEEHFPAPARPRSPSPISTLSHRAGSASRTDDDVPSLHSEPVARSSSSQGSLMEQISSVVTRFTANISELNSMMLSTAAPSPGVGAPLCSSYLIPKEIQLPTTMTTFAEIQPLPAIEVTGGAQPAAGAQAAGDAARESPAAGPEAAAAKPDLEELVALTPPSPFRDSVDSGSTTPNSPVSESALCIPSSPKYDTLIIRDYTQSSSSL
row,Structure (SMILES),Ki
1,"Cc1cc(C#Cc2nc(C)n(-c3ccc(F)cc3)c2C=O)ccn1 [Compound 89, 3-(4-Fluoro-phenyl)-2-methyl-5-(2-methyl-pyridin-4-ylethynyl)-3H-imidazole-4-carbaldehyde]",65 nM
2,"COc1ccnc(-n2cc(C#Cc3ccnc(C)c3)nc2C)n1 [Compound 22, 4-methoxy-2-[2-methyl-4-(2-methyl-pyridin-4-ylethynyl)-imidazol-1-yl]-pyrimidine]",18 nM
3,"Cc1cc(C#Cc2cn(-c3cccc(C(F)(F)F)c3)c(C)n2)ccn1 [Compound 7, 2-methyl-4-[2-methyl-1-(3-trifluoromethyl-phenyl)-1H-imidazol-4-ylethynyl]-pyridine]",24 nM
4,"Cc1cc(C#Cc2cn(-c3ccc(F)c(F)c3)c(C)n2)ccn1 [Compound 4, 4-[1-(3,4-difluoro-phenyl)-2-methyl-1H-imidazol-4-ylethynyl]-2-methyl-pyridine]",25 nM
5,"Cc1cc(C#Cc2cn(-c3ccc(Cl)c(Cl)c3)c(C)n2)ccn1 [Compound 2, 4-[1-(3,4-Dichloro-phenyl)-2-methyl-1H-imidazol-4-ylethynyl]-2-methyl-pyridine hydrochloride]",18 nM
6,"COc1cccc(-n2cc(C#Cc3ccnc(C)c3)nc2C)n1 [Compound 68, 2-Methoxy-6-[2-methyl-4-(2-methyl-pyridin-4-ylethynyl)-imidazol-1-yl]-pyridine]",18 nM
7,"Cc1cc(C#Cc2cn(-c3ncccn3)c(C)n2)ccn1 [Compound 8, 2-[2-Methyl-4-(2-methyl-pyridin-4-ylethynyl)-imidazol-1-yl]-pyrimidine]",74 nM

# Results, then the compound that gave them:
row,Ki,Structure (SMILES)
1,25 nM,"Cc1cc(C#Cc2cn(-c3nccc(Cl)n3)c(C)n2)ccn1 [Compound 29, 4-chloro-2-[2-methyl-4-(2-methyl-pyridin-4-ylethynyl)-imidazol-1-yl]-pyrimidine]"
2,45 nM,"Cc1cc(C#Cc2cn(-c3ccc4c(ccn4C)c3)c(C)n2)ccn1 [Compound 18, 1-methyl-5-[2-methyl-4-(2-methyl-pyridin-4-ylethynyl)-imidazol-1-yl]-1H-indole]"
3,33 nM,"Cc1cc(C#Cc2nc(C)n(-c3ccc(F)cc3)c2C)ccn1 [Compound 88, 4-[1-(4-Fluoro-phenyl)-2,5-dimethyl-1H-imidazol-4-ylethynyl]-2-methyl-pyridine]"
4,27 nM,"Cc1cc(C#Cc2cn(-c3cncc(C4CC4)n3)c(C)n2)ccn1 [Compound 56, 2-cyclopropyl-6-[2-methyl-4-(2-methyl-pyridin-4-ylethynyl)-imidazol-1-yl]-pyrazine]"
5,17 nM,"Cc1cc(C#Cc2cn(-c3nccc(C(F)(F)F)n3)c(C)n2)ccn1 [Compound 21, 2-[2-methyl-4-(2-methyl-pyridin-4-ylethynyl)-imidazol-1-yl]-4-trifluoromethyl-pyrimidine]"
6,16 nM,"Cc1cc(C#Cc2cn(-c3cccc(C4CC4)n3)c(C)n2)ccn1 [Compound 57, 2-cyclopropyl-6-[2-methyl-4-(2-methyl-pyridin-4-ylethynyl)-imidazol-1-yl]-pyridine]"
7,19 nM,"Cc1cc(C#Cc2cn(-c3cccc(N(C)C)n3)c(C)n2)ccn1 [Compound 71, dimethyl-{6-[2-methyl-4-(2-methyl-pyridin-4-ylethynyl)-imidazol-1-yl]-pyridin-2-yl}-amine]"

# System: not given
# Assay: not given
# Conditions: not given
row,melting point,Structure (SMILES)
1,151 °C,"Cc1cc(C#Cc2cn(-c3ccc(F)cc3)c(C)n2)ccn1 [Compound 1, 4-[1-(4-Fluoro-phenyl)-2-methyl-1H-imidazol-4-ylethynyl]-2-methyl-pyridine]"
2,145 to 147 °C,"COc1cc(-n2cc(C#Cc3ccnc(C)c3)nc2C)ccn1 (as salt: HCl) [Compound 69, 2-Methoxy-4-[2-methyl-4-(2-methyl-pyridin-4-ylethynyl)-imidazol-1-yl]-pyridine]"
3,164 to 165 °C,"Cc1cc(C#Cc2cn(-c3ncccn3)c(C)n2)ccn1 [Compound 8, 2-[2-Methyl-4-(2-methyl-pyridin-4-ylethynyl)-imidazol-1-yl]-pyrimidine]"
